Literature values in US20060074057A1, “Use of chenodeoxycholic acid for reducing adipose tissue” (priority 2004, published 2006).

Biological target: 11-beta-hydroxysteroid dehydrogenase type 1 (11BHSD1) (Homo sapiens, UniProt P28845)
Settings: "has been shown"; no data or method given

Sequence of 11-beta-hydroxysteroid dehydrogenase type 1 (11BHSD1) (P28845 whole entry): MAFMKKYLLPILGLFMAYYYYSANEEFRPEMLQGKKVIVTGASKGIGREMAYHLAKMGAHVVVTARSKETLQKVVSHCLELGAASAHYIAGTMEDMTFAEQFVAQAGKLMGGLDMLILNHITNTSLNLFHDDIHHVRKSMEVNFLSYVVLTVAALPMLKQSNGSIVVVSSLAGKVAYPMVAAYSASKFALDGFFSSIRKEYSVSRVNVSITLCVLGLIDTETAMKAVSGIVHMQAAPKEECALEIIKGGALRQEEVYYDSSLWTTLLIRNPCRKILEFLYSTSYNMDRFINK

CC(CCC(=O)O)C1CCC2C3C(CC[C@]12C)[C@@]1(C)CC[C@@H](O)C[C@H]1C[C@H]3O (stereo partly drawn) [Chenodeoxycholic acid, 3-alpha,7-alpha-dihydroxy-5-beta-cholanic acid]
inhibition of 11BHSD1 (result in words): selective inhibitor
